Patent US10167296B2, “Sulfoximine substituted quinazolines for pharmaceutical compositions” (EVOTEC INTERNATIONAL GMBH, priority 2014, dated 2019)

Tests used:
[1] = biological target: MNK1a (pre-activated GST-MNK1a) (Homo sapiens (Human), UniProt Q9BUB5); assay: MNK1 in vitro kinase assay (assay 2), Z'-LYTE; assay type: biochemical; details: for inhibition at 1 µM: compound concentration of 1 μM, read-out: Mnk1 % Inh
Source text: B. MNK1 In Vitro Kinase Assay (Assay 2)
MNK1 Data can be obtained from the MNK1 Z′-LYTE® assay. The MNK1 Z′-LYTE® screening protocol and assay conditions are also described on www.invitrogen.com.
The assay is described as follows:
The Z′-LYTE® biochemical assay employs a fluorescence-based, coupled-enzyme format and is based on the differential sensitivity of phosphorylated and non-phosphorylated peptides to proteolytic cleavage. The peptide substrate is labeled with two fluorophores—one at each end—that make up a FRET pair.
In the primary reaction, the kinase transfers the gamma-phosphate of ATP to a single tyrosine, serine or threonine residue in a synthetic FRET-peptide. In the secondary reaction, a site-specific protease recognizes and cleaves non-phosphorylated FRET-peptides. Phosphorylation of FRET-peptides suppresses cleavage by the Development Reagent. Cleavage disrupts FRET between the donor (i.e., coumarin) and acceptor (i.e., fluorescein) fluorophores on the FRET-peptide, whereas uncleaved, phosphorylated FRET-peptides maintain FRET. A ratiometric method, which calculates the ratio (the Emission Ratio) of donor emission to acceptor emission after excitation of the donor fluorophore at 400 nm, is used to quantitate reaction progress, as shown in the equation below. Emission Ratio=Coumarin Emission(445 nm)/Fluorescein Emission(520 nm)
The inhibition of kinase activity of MNK1a was assessed using pre-activated GST-MNK1a. The 2×MKNK1 (MNK1) mixture is prepared in 50 mM HEPES pH 7.5, 0.01% BRIJ-35, 10 mM MgCl2, 4 mM MnCl2, 1 mM EGTA, 2 mM DTT. The final 10 μL Kinase Reaction consists of 13.5-54 ng MKNK1 (MNK1) and 2 μM Ser/Thr 07 in 50 mM HEPES pH 7.5, 0.01% BRIJ-35, 10 mM MgCl2, 2 mM MnCl2, 1 mM EGTA, 1 mM DTT. After the 1 hour Kinase Reaction incubation, 5 μL of a 1:32768 dilution of Development Reagent A is added.
The Test Compounds are screened in 1% DMSO (final) in the well.
All Peptide/Kinase Mixtures are diluted to a 2×working concentration in the MNK1 Kinase Buffer.
All ATP Solutions are diluted to a 4×working concentration in Kinase Buffer (50 mM HEPES pH 7.5, 0.01% BRIJ-35, 10 mM MgCl2, 1 mM EGTA).
Development Reagent Solution:
The Development Reagent is diluted in Development Buffer
Bar-coded Corning, low volume NBS, 384-well plate (Corning Cat. #3676)
1. 2.5 μL—4×Test Compound
2. 5 μL—2×Peptide/Kinase Mixture
5. 60-minute Kinase Reaction incubation at room temperature
6. 5 μL—Development Reagent Solution
8. 60-minute Development Reaction incubation at room temperature
9. Read on fluorescence plate reader and analyze the data
The following equations are used for each set of data points:
Correction for Background Fluorescence: FISample−FITCFI Ctl Emission Ratio (using values corrected for background fluorescence):Coumarin Emission (445 nm)/Fluorescein Emission (520 nm)
% Phosphorylation (% Phos): 1−((Emission Ratio×F100%)−C100%)/((C0%−C100%)+[Emission Ratio×(F100%−F0%)])*100
% Inhibition: 1−(% PhosSample/% Phos0% Inhibition Ctl)*100 FI=Fluorescence Intensity C100%=Average Coumarin emission signal of the 100% Phos. Control C0%=Average Coumarin emission signal of the 0% Phos. Control F100%=Average Fluorescein emission signal of the 100% Phos. Control F0%=Average Fluorescein emission signal of the 0% Phos. Control
SelectScreen® Kinase Profiling Service uses XLfit from IDBS. The dose response curve is curve fit to model number 205 (sigmoidal dose-response model).

[2] = biological target: MNK2a (pre-activated GST-MNK2a) (Homo sapiens (Human), UniProt Q9HBH9); assay: MNK2a in vitro kinase assay (assay 1), ADP-Glo; assay type: biochemical; details: read-out: Mnk2 IC50
Method: A. MNK2a In Vitro Kinase Assay (Assay 1)
The inhibition of kinase activity of MNK2a was assessed using pre-activated GST-MNK2a. The white, 384-well OptiPlate F plates were purchased from PerkinElmer. The ADP-Glo Kinase Assay (including ultra pure ATP) was purchased from Promega (V9103). Activated MNK2a was obtained as described in WO2011/104340. […] ID No. 5 of WO 2011/104340 by the C-terminal —CONH2 group, was purchased from Thermo Fisher Scientific. All other materials were of highest grade commercially available. Compounds are tested in either serial dilutions or single dose concentrations. The compound stock solutions are 10 mM in 100% DMSO The serial compound dilutions are prepared in 100% DMSO followed by 1:27.3 intermediate dilution in assay buffer. The final DMSO concentration in assay will be <3%.
In the 384-well plates 3 μl of test compound from the intermediate dilution is mixed with 4 μl of the activated MNK2 enzyme (final concentration of 10 nM) and 4 μl of the peptide (final concentration of 25 μM)/ultra pure ATP (final concentration of 20 μM), all dissolved in assay buffer. This step is followed by an incubation time of 90 min, then 10 μl of ADP Glo reagent are added, followed by 40 min of incubation. Then 20 μl of kinase detection reagent are admixed. The plates are sealed and after an incubation period of 30 min, the luminescence signal is measured in an Envision reader to determine the amount of produced ADP. All incubation steps are performed at room temperature.
The assay buffer consists of 20 mM HEPES, 2 mM DTT, 0.01% BSA, 20 mM MgCl2 and 0.1% Pluronic F-127.
The luminescent signal generated is proportional to the ADP concentration produced and is correlated with activated MNK2 activity. The analysis of the data is performed by the calculation of the percentage of ATP consumption of activated MNK2 in the presence of the test compound compared to the consumption of ATP in the presence of activated MNK2 without compound. (RLU(sample)−RLU(low control))*100/(RLU(high value)−RLU(low control))
[RLU=Relative Luminescence Units]
Values of more than 100% CTL are normally related to compound/sample specific physico-chemical properties (e.g. solubility, light absorbance, fluorescence).
IC50 values based on dose response curves are calculated with the AssayExplorer software.

MNK2a (pre-activated GST-MNK2a), sequence (Q9HBH9 whole entry): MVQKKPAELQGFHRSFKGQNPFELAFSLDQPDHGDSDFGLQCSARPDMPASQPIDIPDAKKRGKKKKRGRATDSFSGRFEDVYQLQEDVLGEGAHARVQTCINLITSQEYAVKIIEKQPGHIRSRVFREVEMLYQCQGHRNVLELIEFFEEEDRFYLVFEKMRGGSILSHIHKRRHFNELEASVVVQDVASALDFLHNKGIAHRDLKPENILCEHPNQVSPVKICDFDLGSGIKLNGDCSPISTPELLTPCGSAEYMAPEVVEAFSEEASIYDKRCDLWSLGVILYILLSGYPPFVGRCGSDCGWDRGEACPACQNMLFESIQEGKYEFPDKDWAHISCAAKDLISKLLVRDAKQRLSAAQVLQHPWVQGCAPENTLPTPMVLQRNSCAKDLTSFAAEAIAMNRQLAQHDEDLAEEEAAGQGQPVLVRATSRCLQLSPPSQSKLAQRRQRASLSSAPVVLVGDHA
MNK1a (pre-activated GST-MNK1a), sequence (Q9BUB5 other isoform, or with tags, fused parts or gaps): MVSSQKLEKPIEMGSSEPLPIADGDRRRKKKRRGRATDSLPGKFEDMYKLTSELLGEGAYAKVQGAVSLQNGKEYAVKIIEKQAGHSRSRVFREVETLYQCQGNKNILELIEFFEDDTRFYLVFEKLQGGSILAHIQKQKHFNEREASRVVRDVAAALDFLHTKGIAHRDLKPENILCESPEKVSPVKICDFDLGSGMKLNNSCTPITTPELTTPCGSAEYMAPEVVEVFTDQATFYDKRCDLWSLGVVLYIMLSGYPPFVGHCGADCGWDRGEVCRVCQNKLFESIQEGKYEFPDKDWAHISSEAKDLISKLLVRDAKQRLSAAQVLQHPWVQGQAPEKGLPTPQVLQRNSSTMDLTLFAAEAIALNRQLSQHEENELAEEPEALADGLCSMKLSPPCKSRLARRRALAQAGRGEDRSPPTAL

SMILES | inhibition at 1 µM [1] [%] | IC50 [2] [nM] | IC50 [1] [nM]
COc1c(N=S2(=O)CCC2)cc2ncnc(Nc3ccc(F)cc3O[C@@H]3CO[C@H]4[C@@H]3OC[C@H]4OC)c2c1Cl [Example 2.18] | 95 | 1.3 | 
COc1c(N=S(C)(=O)C(C)(C)C)cc2ncnc(Nc3ccc(F)cc3O[C@@H]3CO[C@@H]4CCO[C@@H]43)c2c1C (stereo partly shown) [Example 2.19] | 102 | 2.8 | 
COc1c(N=S(C)(C)=O)cc2ncnc(Nc3cc4cn[nH]c4cc3OC(C)C)c2c1C [Example 2.20] |  | 3.8 | 57
COc1c(N=S2(=O)CCC2)cc2ncnc(Nc3cccnc3O[C@@H]3CO[C@@H]4CCO[C@@H]43)c2c1C [Example 2.21] |  | 1.9 | 33
COc1c(N=S(C)(C)=O)cc2ncnc(Nc3ccc(F)cc3O[C@H]3CC[C@H](O)CC3)c2c1C [Example 2.22] | 98 | 2.5 | 
COc1c(N=S(C)(=O)CCO)cc2ncnc(Nc3ccc(F)cc3O[C@@H]3CO[C@@H]4CCO[C@@H]43)c2c1C (stereo partly shown) [Example 2.23] | 105 | 2 | 
COc1c(N=S(C)(C)=O)cc2ncnc(Nc3ccc(F)cc3O[C@H](C)C(=O)NCC(F)(F)F)c2c1C [Example 2.24] | 100 | 4.4 | 
COc1c(N=S(C)(C)=O)cc2ncnc(Nc3ccc(F)cc3O[C@@H]3CO[C@@H]4CCO[C@@H]43)c2c1C [Example 2.25] |  | 0.8 | 18
COc1c(N=S2(=O)CCC2)cc2ncnc(Nc3ccc(F)cc3O[C@@H]3CO[C@H]4[C@@H]3OC[C@@H]4F)c2c1C [Example 2.26] |  | 1 | 64
COc1c(N=S2(=O)CCC2)cc2ncnc(Nc3cc4cn[nH]c4cc3OC(C)C)c2c1C [Example 2.27] |  | 3.9 | 87
COc1c(N=S(C)(C)=O)cc2ncnc(Nc3ccc(Cl)cc3O[C@H](C)C(=O)NCC(F)(F)F)c2c1C [Example 2.29] | 96 | 2.6 | 
COc1c(N=S2(=O)CCNCC2)cc2ncnc(Nc3ccc(F)cc3O[C@@H]3CO[C@@H]4CCO[C@@H]43)c2c1C [Example 2.30] | 105 | 1.3 | 
COc1c(N=S(C)(=O)C(C)C)cc2ncnc(Nc3ccc(F)cc3O[C@@H]3CO[C@@H]4CCO[C@@H]43)c2c1C (stereo partly shown) [Example 2.31] | 96 | 2.1 | 
Cc1c(OCCN2CCN(C)C(=O)C2)c(N=S(C)(C)=O)cc2ncnc(Nc3ccc(F)cc3O[C@H](C)C(F)(F)F)c12 [Example 2.32] |  | 4.1 | 65
COc1c(N=S2(=O)CCCC2)cc2ncnc(Nc3ccc(F)cc3O[C@@H]3CO[C@@H]4CCO[C@@H]43)c2c1Cl [Example 2.33] | 106 | 1.6 | 
COc1c(N=S(C)(C)=O)cc2ncnc(Nc3ccc(F)cc3OC3CCOCC3)c2c1Cl [Example 2.34] | 94 | 2 | 

SMILES | inhibition at 1 µM [1] [%] | IC50 [2] [nM] | IC50 [1] [nM]
COc1c(N=S2(=O)CCC2)cc2ncnc(Nc3ccc(F)cc3O[C@H](C)C(F)(F)F)c2c1C [Example 2.35] |  | 1.5 | 74
COc1c(N=S2(=O)CCCC2)cc2ncnc(Nc3ccc(F)cc3O[C@@H]3CO[C@H]4[C@@H]3OC[C@H]4OC)c2c1C [Example 2.36] |  | 1.8 | 15
COc1c(N=S(C)(C)=O)cc2ncnc(Nc3ccc(F)cc3O[C@H](C)C(=O)N[C@@H](C)C(F)(F)F)c2c1C [Example 2.37] | 88 | 4.1 | 
COc1c(N=S(C)(C)=O)cc2ncnc(Nc3ccc(F)cc3O[C@H]3COC[C@@H]3O)c2c1C [Example 2.38] |  | 2 | 55
COc1c(N=S2(=O)CCC2)cc2ncnc(Nc3ccc(Cl)cc3O[C@H](C)C(=O)NCC(F)(F)F)c2c1C [Example 2.39] |  | 2.4 | 66
COc1c(N=S(C)(C)=O)cc2ncnc(Nc3ccc(F)cc3O[C@@H]3CO[C@@H]4CCO[C@@H]43)c2c1Cl [Example 2.40] |  | 1.3 | 16
COc1c(N=S2(=O)CCC2)cc2ncnc(Nc3ccc(F)cc3O[C@@H]3CO[C@H]4[C@@H]3OC[C@H]4OC)c2c1C [Example 2.41] | 106 | 1.6 | 
COc1c(N=S2(=O)CCC2)cc2ncnc(Nc3ccc(F)cc3O[C@@H]3CO[C@@H]4CCO[C@@H]43)c2c1C [Example 2.42] |  | 1.2 | 52
COc1c(N=S(C)(=O)C2CC2)cc2ncnc(Nc3ccc(F)cc3O[C@@H]3CO[C@@H]4CCO[C@@H]43)c2c1C (stereo partly shown) [Example 2.43] | 97 | 2.3 | 
COc1c(N=S2(=O)CCCC2)cc2ncnc(Nc3ccc(F)cc3O[C@H]3CC[C@H](O)CC3)c2c1C [Example 2.44] |  | 1.4 | 41
COc1c(N=S(C)(C)=O)cc2ncnc(Nc3ccc(F)cc3O[C@@H]3CO[C@H]4[C@@H]3OC[C@H]4OC)c2c1C [Example 2.45] |  | 1.7 | 17
COc1c(N=S2(=O)CCCC2)cc2ncnc(Nc3ccc(F)cc3O[C@H]3COC[C@@H]3O)c2c1C [Example 2.46] |  | 2 | 37
COc1c(N=S(C)(C)=O)cc2ncnc(Nc3ccc(F)cc3O[C@H](C)C(=O)NCC(F)(F)F)c2c1Cl [Example 2.47] |  | 1.4 | 28
COc1c(N=S2(=O)CCCC2)cc2ncnc(Nc3ccc(F)cc3O[C@H]3CCOC3)c2c1C [Example 2.48] |  | 1.3 | 22
COc1c(N=S(C)(C)=O)cc2ncnc(Nc3cccnc3O[C@@H]3CO[C@@H]4CCO[C@@H]43)c2c1C [Example 2.49] | 95 | 2.3 | 
COc1c(N=S(C)(C)=O)cc2ncnc(Nc3ccc(F)cc3O[C@H]3CCOC3)c2c1C [Example 2.50] |  | 2 | 44
